Data set [1] is described as follows: Cmax of other small molecule drugs in plasma, preparation versus original drug solution (Experimental Example 7). It counts as in vivo. The following applies: male SD rats, subcutaneous; for Phospholipid Span sustained release preparation Cmax: drug in preparation made by prescription and method of Example 1; for Cmax: Sprague-Dawley (SD), rat, sc. Here is the method:
In vivo experiments in animals were used to investigate the effects of other small molecule drugs on inhibiting burst release. […] The obtained phospholipid Span sustained release preparation and original drug solution of the other small molecule drugs (each drug was formulated with water, ethanol or DMSO for injection, depending on the specific solubility) were injected subcutaneously into male SD rats, whose blood was taken at regular intervals. The C. of the small molecule drugs in plasma was determined by high-performance liquid chromatography-mass spectrometry (LC-MS/MS), thereby investigating the effect on inhibiting burst release.

Data set [2] in a line: In vivo pharmacokinetics of dabigatran etexilate preparations, subcutaneous (Experimental Example 5). Particulars: male, Sprague-Dawley (SD), rat, plasma, sc, SD rats, solution 11.4 mg/kg, gels 80 mg/kg. Here is the method: At the scheduled time point, blood was taken from the rat eye and placed in a heparin sodium anticoagulated test tube. After the sample was processed, the blood concentration was measured by LC-MS/MS.

The nature of data set [3]: In vivo pharmacokinetics of 2,4-dinitrophenol preparations, subcutaneous (Experimental Example 4). On the set-up: species or system male SD rats. How it is done:
The product of Example 1 was injected subcutaneously into male SD rats, whose blood was taken at regular intervals. The content of 2,4-dinitrophenol in plasma was determined by high-performance liquid chromatography-mass spectrometry (LC-MS/MS), thereby investigating the sustained release effect thereof.
200-220 g of SD rats were randomly divided into three groups, solution group (Test Example 4 in Experimental Example 1), phospholipid Span gel group (Example 1), and high-concentration phospholipid gel group (prepared according to patent CN102526753A). There were 6 rats in each group and they were injected subcutaneously at the dosage of 12.5 mg/kg. At the scheduled time point, blood was taken from the rat eye and placed in a heparin sodium anticoagulated test tube. After the sample was processed, the blood concentration was measured by LC-MS/MS injection.
The fomulation of the high-concentration phospholipid gel sustained release preparation (patent CN102526753A) is as follows: […]

Data set [4] in a line: Blood concentration of 2,4-dinitrophenol in rats after subcutaneous dosing, surfactant comparison (Experimental Example 1). The following applies: Sprague-Dawley (SD), rat, in vivo, sc, 12.5 mg/kg 2,4-dinitrophenol, LC-MS/MS, surfactant 3.5 g varied. How it is done: The following test was carried out in accordance with the preparation method of Example 1, except that the Span in the prescription of Example 1 was replaced with glyceryl dioleate (Test Example 1), Tween (Test Example 2) and sucrose acetate isobutyrate (Test Example 3). At the same time, the original drug solution group was designed (Test Example 4, 50 mg of the drug was dissolved in 10 mL of phosphate buffer (pH=7.6), and a solution of the same concentration as in Example 1 was prepared).
200-220 g of SD rats were randomly divided into five groups, 6 rats in each group, and were administered subcutaneously with 12.5 mg/kg dosage of 2,4-dinitrophenol (Example 1, Test Example 1, Test Example 2, Test Example 3 and Test Example 4). At the scheduled time point, blood was taken from the rat eye and placed in a heparin sodium anticoagulated test tube. After the sample was processed, the blood concentration was measured by LC-MS/MS.

Setting [5] is: original drug solution in water, ethanol or DMSO for injection.
The mark [6] stands for this setting: drug in preparation made by prescription and method of Example 1, read-out: Phospholipid Span sustained release preparation Cmax.
The mark [7] stands for this setting: in vivo, drug in preparation made by prescription and method of Example 1, read-out: Phospholipid Span sustained release preparation Cmax.

Where a name gives a salt, the structure may show the parent alone.

As for `C/C=C1\[C@H]2C=C(C)C[C@]1(N)c1ccc(=O)[nH]c1C2` [Huperzine A], the “Phospholipid Span sustained release preparation Cmax” value in data set [1] stood at 1330 ± 220 ng/mL. In addition, the “Original drug Cmax” value in data set [1] (setting [5]) turned out to be 13870 ± 2860 ng/mL. With `CCCCCCOC(=O)NC(=N)c1ccc(NCc2nc3cc(C(=O)N(CCC(=O)OCC)c4ccccn4)ccc3n2C)cc1` [Solution group, dabigatran etexilate], in data set [2], the AUC(0-t) (as a rule, the area under the concentration-time curve up to a stated or last time point) was 1970 ± 474 ng·h/mL; the Cmax amounted to 244 ± 31.5 ng/mL; the time of peak concentration (Tmax) (usually the time at which the peak concentration occurs) amounted to 3.18 ± 0.21 h; the half-life (usually how long it takes for the measured level to halve) was 5.21 ± 0.83 h. For the same compound, the MRT last in data set [2] (read-out: MRT0-t) stood at 7.86 ± 1.14 h. The “AUC (0→∞)” value in data set [3] (SD rats, subcutaneous, 12.5 mg/kg, 2,4-dinitrophenol) is 10.19 ± 1.11 mg·days/L. As for `CC(=O)Oc1ccccc1C(=O)O` [Aspirin], in data set [1] (setting [6]), the Cmax was 14600 ± 3120 ng/mL.

As for `NC(=O)N1c2ccccc2C=Cc2ccccc21` [Carbamazepine], the Cmax in data set [1] (setting [6]) was determined as 4460 ± 570 ng/mL.

Turning to `COCCOC(=O)C1=C(C)NC(C)=C(C(=O)OC(C)C)C1c1cccc([N+](=O)[O-])c1` (stereo not shown) [Nimodipine], the Cmax in data set [1] (setting [6]) was 1510 ± 670 ng/mL. Take `NS(=O)(=O)c1cc2c(cc1C(F)(F)F)NCNS2(=O)=O` [Hydroflumethiazido]: the “Phospholipid Span sustained release preparation Cmax” value in data set [1] was found to be 870 ± 520 ng/mL. Further, the “Original drug Cmax” value in data set [1] (setting [5]) came to 5780 ± 2060 ng/mL. Regarding `CN(C)C(=N)N=C(N)N` [Metformin hydrochloride], the Cmax in data set [1] (setting [6]) was 820 ± 90 ng/mL.

`CCC1(c2ccccc2)C(=O)NC(=O)NC1=O` [Phenobarbital]: the Cmax in data set [1] (setting [7]) turned out to be 2510 ± 680 ng/mL. Take `COc1cccc2c1C(=O)c1c(O)c3c(c(O)c1C2=O)C[C@@](O)(C(=O)CO)C[C@@H]3O[C@H]1C[C@H](N)[C@H](O)[C@H](C)O1` [Doxorubicin]: the Cmax in data set [1] (setting [6]) came out at 30 ± 10 ng/mL. Regarding `C[C@@H]1C[C@H]2[C@@H]3CCC4=CC(=O)C=C[C@]4(C)[C@@]3(F)[C@@H](O)C[C@]2(C)[C@@]1(O)C(=O)CO` [Dexamethasone], the Cmax was found to be 130 ± 50 ng/mL in data set [1] (male, drug in preparation made by prescription and method of Example 1, read-out: Phospholipid Span sustained release preparation Cmax); 530 ± 120 ng/mL in data set [1] (male, original drug solution in water, ethanol or DMSO for injection, read-out: Original drug Cmax).

`Cn1c(=O)c2[nH]cnc2n(C)c1=O` [theophylline]: in data set [1] (setting [7]), the Cmax is 1540 ± 320 ng/mL.

`O=[N+]([O-])c1ccc(O)c([N+](=O)[O-])c1` [Test Example4, 2,4-dinitrophenol]: the Cmax in data set [4] is 54500 ng/mL; in data set [3] (male, Sprague-Dawley (SD), rat, in vivo, sc, 12.5 mg/kg, rats, subcutaneous, same dose, 2,4-dinitrophenol), around 54500 ng/mL. Also, in data set [3] (rats, same dose, original drug group), the “Duration of drug release” value turned out to be 24 h.

For the origin of these results see patent publication US20200069583A1, “IN SITU PHASE CHANGE GEL SUSTAINED-RELEASE SYSTEM FOR SMALL MOLECULE DRUG AND PREPARATION METHOD THEREOF” (SICHUAN UNIVERSITY, priority 2017, published 2020).
